From patent US5644025A, “Tetrapeptides deriving from dalbaheptide antibiotics” (Gruppo Lepetit SPA, priority 1990, dated 1997)
Converted amounts (≈) assume the structure as drawn.

What was measured:
Test in all cases: in vitro antibacterial activity, MIC by dilution test in microtiter
E. faecalis clin. isol. = assay type: cell-based, Enterococcus faecalis; details: for MIC: strain L 502, Mueller-Hinton broth, inoculum about 5×10^5 cfu/ml, 0.01% bovine serum albumin, 37° C., 18-24 hours
Method: (§1) The in vitro antibacterial activity of the compounds is determined by means of standard […] tests in microtiter. Iso-Sensitest broth (Oxoid) is used for all bacteria except streptococci (Todd-Wewitt broth, Difco) and enterococci (Mueller-Hinton, Difco). Broth cultures are diluted so that the final inoculum is about 5×10^5 cfu/ml (colony forming units per ml). All broth microdilution MICs are performed in the presence of 0.01% bovine serum albumin (Pentax fraction V, Sigma).

[1] = tested on: S. epidermidis ATCC 12,228; assay type: cell-based; details: strain L 147; Iso-Sensitest broth, inoculum about 5×10^5 cfu/ml, 0.01% bovine serum albumin, 37° C., 18-24 hours
Method: as §1

S. aureus Smith = assay type: cell-based; details: strain L 819; Iso-Sensitest broth, inoculum about 5×10^5 cfu/ml, 0.01% bovine serum albumin, 37° C., 18-24 hours
Method: as §1

Strep. pneumoniae UC41 = assay type: cell-based; details: strain L 44; Todd-Wewitt broth, inoculum about 5×10^5 cfu/ml, 0.01% bovine serum albumin, 37° C., 18-24 hours
Method: as §1

[2] = tested on: Enterococcus faecalis ATCC 7,080; assay type: cell-based; details: strain L 149; Mueller-Hinton broth, inoculum about 5×10^5 cfu/ml, 0.01% bovine serum albumin, 37° C., 18-24 hours
Method: as §1

Staph. aureus Tour = assay type: cell-based; details: strain L 165; Iso-Sensitest broth, inoculum about 5×10^5 cfu/ml, 0.01% bovine serum albumin, 37° C., 18-24 hours
Method: as §1

Strep. pyogenes C203 = assay type: cell-based; details: strain L 49; Todd-Wewitt broth, inoculum about 5×10^5 cfu/ml, 0.01% bovine serum albumin, 37° C., 18-24 hours
Method: as §1

S. aureus clin. isol. = assay type: cell-based; details: strain L 561; Iso-Sensitest broth, inoculum about 5×10^5 cfu/ml, 0.01% bovine serum albumin, 37° C., 18-24 hours
Method: as §1

[3] = tested on: S. epidermidis clin. isol.; assay type: cell-based; details: strain L 533; Iso-Sensitest broth, inoculum about 5×10^5 cfu/ml, 0.01% bovine serum albumin, 37° C., 18-24 hours
Method: as §1

[4] = tested on: S. haemolyticus clin, isol.; assay type: cell-based; details: strain L 602; Iso-Sensitest broth, inoculum about 5×10^5 cfu/ml, 0.01% bovine serum albumin, 37° C., 18-24 hours
Method: as §1

Compound	activity against a clinical isolate of Enterococcus faecalis (in words) (E. faecalis clin. isol.)	MIC (E. faecalis clin. isol.) [mg/L]	MIC [1] [mg/L]	MIC (S. aureus Smith) [mg/L]	MIC (Strep. pneumoniae UC41) [mg/L]	MIC [2] [mg/L]	MIC (Staph. aureus Tour) [mg/L]	MIC (Strep. pyogenes C203) [mg/L]	MIC (S. aureus clin. isol.) [mg/L]	MIC [3] [mg/L]	MIC [4] [mg/L]
N[C@H]1C(=O)N[C@@H]2Cc3ccc(c(Cl)c3)Oc3cc4cc(c3O)Oc3ccc(cc3Cl)[C@@H](O)[C@@H]3NC(=O)[C@H](NC(=O)[C@@H]4NC(=O)[C@@H](NC2=O)c2cc(O)cc(c2)Oc2cc1ccc2O)c1ccc(O)c(c1)-c1c(O)cc(O)cc1[C@@H](C(=O)O)NC3=O [teicoplanin aglycon]	resistant	> 128	0.06 (≈ 0.05 µM)	0.06 (≈ 0.05 µM)	0.13 (≈ 0.108 µM)	0.13 (≈ 0.108 µM)	0.13 (≈ 0.108 µM)	0.13 (≈ 0.108 µM)	0.13 (≈ 0.108 µM)	0.016 (≈ 0.0133 µM)	0.25 (≈ 0.209 µM)
(L-phenylalanyl)^3 -(D-lysyl)^15 -aglucoteicoplanin dalbaheptide methyl ester	surprisingly active	16	0.13	0.13	0.13	0.5	0.13	0.25	0.06	0.13	0.5
teicoplanin	resistant	> 128	8	0.25	0.13	0.13	0.13	0.13	8	8	32
